Experimental data reported in patent US7727736B2, “Soluble phospholipids for use in clotting factor assays” (The University of North Carolina at Chapel Hill, priority 2003, dated 2010).

Experiments:
[1] = target: FXa (Homo sapiens, UniProt P00742); assay: Native gel electrophoresis (Ferguson analysis), C6PS bound to FXa; format: binding; design: Human prothrombin and factor Xa; purchased Hematologic Technologies Inc. (Essex Junction, Vt.); conditions: 400 μM C6PS
Description: Native Gel Electrophoresis. This method has been used to document the association of blood coagulation proteins in solution (Majumder, et al. (2002) supra; Majumder, et al. (2003) supra). A mixture of 1 nM FXa and 1 nM FVa was incubated at 37° C. for 2 minutes in the presence and absence of 400 μM C6PS and the two samples were run together with known marker proteins (270 kiloDalton-14.2 kiloDalton; SIGMA, St. Louis, Mo.) on five gels (5, 6, 6.5, 7, and 8% total acrylamide with bisacrylamide/acrylamide being 1/29 in all cases) in a BIORAD® MINI-PROTEAN® II minigel apparatus (BIORAD® Corp., Hercules, Calif.) and stained with colloidal Coomassie blue (Mitra, et al. (1994) supra). FXa and FVa, at these same concentrations and in the presence of 400 μM C6PS, were run separately as controls. Protein retardation coefficients, which depend to a good approximation only on the hydrodynamic size and shape of the protein, were determined for both the marker and unknown proteins (Ferguson (1964) Metabolism 13:985-1002). A log-log plot of the retardation coefficient against the molecular weights of the marker proteins produced a linear curve from which the molecular weight of the FVa•FXa complex was determined from its measured retardation coefficient (Bryan (1977) Anal. Biochem. 78(2):513-9). […]

[2] = target: T1, FXa•FVa2 complex (Homo sapiens, UniProt P00742+P12259); assay: Native gel electrophoresis (Ferguson analysis), C6PS bound to FXa•FVa2 complex; format: binding
T1 construct: Human prothrombin and factor Xa; tissue Hematologic Technologies Inc. (factor Xa only); factor Xa purchased
T1 sequence (P00742 41-179 limits assumed): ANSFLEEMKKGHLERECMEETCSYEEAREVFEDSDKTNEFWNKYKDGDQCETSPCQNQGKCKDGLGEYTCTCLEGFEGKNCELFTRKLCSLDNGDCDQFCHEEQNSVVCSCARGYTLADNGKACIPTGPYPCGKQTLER
T1 sequence (P00742 235-488 limits assumed): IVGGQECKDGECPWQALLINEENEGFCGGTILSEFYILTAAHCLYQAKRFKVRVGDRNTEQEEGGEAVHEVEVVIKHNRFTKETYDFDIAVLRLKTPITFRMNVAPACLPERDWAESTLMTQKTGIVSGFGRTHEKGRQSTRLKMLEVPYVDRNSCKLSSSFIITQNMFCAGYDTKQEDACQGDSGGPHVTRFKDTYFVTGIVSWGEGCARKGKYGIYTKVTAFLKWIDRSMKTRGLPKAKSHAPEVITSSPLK
T1 sequence (P12259 29-737 limits assumed): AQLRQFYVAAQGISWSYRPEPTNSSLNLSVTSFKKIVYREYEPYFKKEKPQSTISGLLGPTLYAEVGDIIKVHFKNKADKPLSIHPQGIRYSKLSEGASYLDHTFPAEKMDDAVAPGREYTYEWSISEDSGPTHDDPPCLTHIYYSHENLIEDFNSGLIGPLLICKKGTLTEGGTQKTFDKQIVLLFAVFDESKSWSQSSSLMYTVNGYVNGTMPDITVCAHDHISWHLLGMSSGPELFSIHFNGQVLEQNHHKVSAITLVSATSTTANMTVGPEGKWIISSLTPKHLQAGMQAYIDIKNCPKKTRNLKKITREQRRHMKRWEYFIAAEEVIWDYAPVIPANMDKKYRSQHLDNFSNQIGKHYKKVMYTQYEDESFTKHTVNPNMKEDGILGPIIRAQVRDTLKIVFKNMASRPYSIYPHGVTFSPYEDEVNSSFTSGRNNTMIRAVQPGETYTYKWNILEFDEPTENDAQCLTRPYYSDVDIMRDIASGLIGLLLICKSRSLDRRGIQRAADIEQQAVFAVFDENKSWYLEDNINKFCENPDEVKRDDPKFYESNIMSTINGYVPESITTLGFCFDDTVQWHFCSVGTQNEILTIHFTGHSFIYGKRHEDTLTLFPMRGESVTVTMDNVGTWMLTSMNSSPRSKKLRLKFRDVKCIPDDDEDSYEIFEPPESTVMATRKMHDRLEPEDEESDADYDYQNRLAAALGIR
T1 sequence (P12259 1574-2224 limits assumed): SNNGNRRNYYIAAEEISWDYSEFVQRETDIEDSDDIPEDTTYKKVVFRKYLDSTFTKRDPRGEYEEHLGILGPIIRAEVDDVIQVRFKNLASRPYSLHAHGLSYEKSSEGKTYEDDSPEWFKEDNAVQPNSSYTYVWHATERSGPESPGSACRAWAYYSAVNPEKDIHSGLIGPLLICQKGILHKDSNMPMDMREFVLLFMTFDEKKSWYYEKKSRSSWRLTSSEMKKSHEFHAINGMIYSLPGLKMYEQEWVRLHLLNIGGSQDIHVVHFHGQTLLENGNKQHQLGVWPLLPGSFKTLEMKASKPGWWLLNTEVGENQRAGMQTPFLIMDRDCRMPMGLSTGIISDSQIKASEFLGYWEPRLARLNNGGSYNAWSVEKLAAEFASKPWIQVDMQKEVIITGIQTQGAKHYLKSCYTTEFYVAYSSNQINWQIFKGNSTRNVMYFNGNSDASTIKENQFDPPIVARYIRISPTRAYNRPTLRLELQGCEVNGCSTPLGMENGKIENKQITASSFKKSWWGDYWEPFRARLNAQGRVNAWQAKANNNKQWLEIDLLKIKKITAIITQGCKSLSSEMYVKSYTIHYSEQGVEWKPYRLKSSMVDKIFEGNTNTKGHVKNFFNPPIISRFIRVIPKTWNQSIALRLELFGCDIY
Description: A mixture of FXa and FVa2 in the absence (lane 1 of gel) and presence (lane 2) of 400 μM C6PS (5 mM Ca^2+) was analyzed by native polyacrylamide gel electrophoresis on a standard 6% gel (Majumder, et al. (2002) supra). A log-log plot of retardation coefficients versus molecular mass of different reference proteins is also shown (open circles). Points have been added to this plot for retardation coefficients obtained for FXa (triangle) or FVa2 (4-point star) in the absence of C6PS, and of the FXa•FVa2 complex (5-point star) formed in the presence of C6PS. The apparent molecular weight of the complex, as identified from this plot, was 224±3.7 kilodaltons.
Native Gel Electrophoresis. This method has been used to document the association of blood coagulation proteins in solution (Majumder, et al. (2002) supra; Majumder, et al. (2003) supra). […] Protein retardation coefficients, which depend to a good approximation only on the hydrodynamic size and shape of the protein, were determined for both the marker and unknown proteins (Ferguson (1964) Metabolism 13:985-1002). A log-log plot of the retardation coefficient against the molecular weights of the marker proteins produced a linear curve from which the molecular weight of the FVa•FXa complex was determined from its measured retardation coefficient (Bryan (1977) Anal. Biochem. 78(2):513-9). […]

Chain of FXa (P00742 41-179 limits assumed): as the sequence (P00742 41-179 limits assumed) above
Chain of FXa (P00742 235-488 limits assumed): as the sequence (P00742 235-488 limits assumed) above

## CCCCCC(=O)OC[C@H](COP(=O)(O)OC[C@H](N)C(=O)O)OC(=O)CCCCC [C6PS, 1,2-dicaproyl-sn-glycero-3-phospho-L-serine]
[1]
  molecules of C6PS bound to FXa from molecular mass: 1.5 molecules
[2]; 400 μM C6PS
  C6PS in stoichiometry Xa:Va2:C6PS of the complex from molecular mass: 3.4±7.7
[2]; based on equilibrium dialysis stoichiometries
  most likely number of C6PS molecules bound to the complex: 5-6 molecules
